Assay results: the NIST ThermoML archive (doi:10.1016/j.jct.2016.09.026)
± gives the expanded uncertainty stated by the source.

Legend:
[1] = Crystal
[2] = Molar enthalpy of transition or fusion; details: Crystal; DSC
[3] = molar heat capacity at constant pressure; details: 101.33 kPa, Small sample (50 mg) DSC
[4] = molar enthalpy of vaporization or sublimation; details: 341.73 K; Liquid; Static calorimetry

CCCCC(=O)c1ccc(O)cc1 [1-(4-hydroxyphenyl)-1-pentanone]
Details	mass density [kg/m3]
[1], 298 K, 101.33 kPa, X-ray diffraction	1204.5 ± 8

Details	Normal melting temperature [°C]
[1], DTA	61.1 ± 0.8

Details	Molar enthalpy of transition or fusion [kcal/mol]	molar enthalpy [kcal/mol]
[2]	6.15 ± 0.141	–
[4]	–	22.96 ± 0.174

[3]
Details	molar heat capacity at constant pressure [J/K/mol]
288.67 K, Crystal	235 ± 7.5
288.92 K, Crystal	235.9 ± 7.3
289.17 K, Crystal	235.2 ± 6.7
289.42 K, Crystal	236.4 ± 6.7
289.67 K, Crystal	236 ± 7.7
289.92 K, Crystal	235.3 ± 7.5
290.17 K, Crystal	236.5 ± 7.5
290.42 K, Crystal	236.3 ± 7.5
290.68 K, Crystal	238 ± 8.1
290.93 K, Crystal	236.4 ± 7.1
291.18 K, Crystal	236.8 ± 7.7
291.43 K, Crystal	238 ± 8.1
291.68 K, Crystal	237.8 ± 8.1
291.93 K, Crystal	236.7 ± 7.7
292.18 K, Crystal	237.4 ± 7.5
292.43 K, Crystal	238.5 ± 7.7
292.68 K, Crystal	239 ± 8.8
292.93 K, Crystal	239.6 ± 7.5
293.18 K, Crystal	239.6 ± 7.7
293.43 K, Crystal	240 ± 7.7
293.68 K, Crystal	240.4 ± 8.8
293.93 K, Crystal	239.8 ± 8.3
294.18 K, Crystal	239.1 ± 7.7
294.44 K, Crystal	239.1 ± 8.3
294.69 K, Crystal	240.8 ± 8.3
294.94 K, Crystal	240.4 ± 8.3
295.19 K, Crystal	239.8 ± 7.7
295.44 K, Crystal	240.5 ± 7.1
295.69 K, Crystal	241.6 ± 7.5
295.94 K, Crystal	241.1 ± 7.5
296.19 K, Crystal	240.8 ± 7.9
296.44 K, Crystal	242.1 ± 8.1
296.69 K, Crystal	241.7 ± 7.7
296.94 K, Crystal	241.2 ± 8.6
297.19 K, Crystal	241.5 ± 8.3
297.44 K, Crystal	242.2 ± 8.6
297.69 K, Crystal	241.6 ± 7.7
297.94 K, Crystal	242.5 ± 8.1
298.19 K, Crystal	242.7 ± 8.3
298.44 K, Crystal	242.8 ± 7.7
298.69 K, Crystal	241.8 ± 7.9
298.94 K, Crystal	242.3 ± 7.5
299.19 K, Crystal	242.3 ± 6.9
299.44 K, Crystal	242.2 ± 8.1
299.69 K, Crystal	242.9 ± 8.6
299.94 K, Crystal	244.1 ± 8.8
300.19 K, Crystal	244.9 ± 8.6
300.44 K, Crystal	244.3 ± 8.4
300.69 K, Crystal	244.4 ± 8.1
300.94 K, Crystal	244.7 ± 8.8
301.19 K, Crystal	244.5 ± 8.4
301.44 K, Crystal	243.4 ± 8.4
301.69 K, Crystal	244.2 ± 8.1
301.94 K, Crystal	244.9 ± 8.2
302.19 K, Crystal	245.3 ± 8.4
302.44 K, Crystal	245.1 ± 8.6
302.69 K, Crystal	244.8 ± 8.6
302.94 K, Crystal	245.6 ± 8.8
303.19 K, Crystal	246.4 ± 9
303.44 K, Crystal	246.5 ± 8.2
303.69 K, Crystal	247 ± 8.2
303.94 K, Crystal	247.4 ± 8.8
304.19 K, Crystal	247.3 ± 9.2
304.44 K, Crystal	247.5 ± 9
304.69 K, Crystal	246.8 ± 8.8
304.94 K, Crystal	246.8 ± 9
305.19 K, Crystal	247.1 ± 9.6
305.44 K, Crystal	248.1 ± 9.9
305.69 K, Crystal	247.8 ± 9.4
305.94 K, Crystal	247.5 ± 9.2
306.19 K, Crystal	247.7 ± 9.7
306.44 K, Crystal	248.9 ± 9.7
306.69 K, Crystal	248.8 ± 10
306.94 K, Crystal	249.6 ± 10
307.19 K, Crystal	250.4 ± 9.7
307.44 K, Crystal	250.1 ± 9.7
307.69 K, Crystal	250.1 ± 9.4
307.94 K, Crystal	249.4 ± 9.7
308.19 K, Crystal	249.7 ± 9.4
308.44 K, Crystal	250.1 ± 9.9
308.69 K, Crystal	249.7 ± 9.4
308.94 K, Crystal	250.3 ± 9.9
309.19 K, Crystal	250.8 ± 9.9
309.44 K, Crystal	251.7 ± 10
309.69 K, Crystal	252.9 ± 11
309.94 K, Crystal	251.9 ± 9.9
310.19 K, Crystal	253.2 ± 10
310.44 K, Crystal	253.8 ± 9.7
310.69 K, Crystal	253.1 ± 9
310.94 K, Crystal	253.2 ± 8.8
311.19 K, Crystal	252.6 ± 9.7
311.44 K, Crystal	252.4 ± 9.9
311.69 K, Crystal	253.1 ± 10
311.94 K, Crystal	252.2 ± 9.5
312.19 K, Crystal	252.8 ± 9
312.44 K, Crystal	252.4 ± 9.9
312.69 K, Crystal	253.6 ± 9.3
312.94 K, Crystal	254 ± 10
313.19 K, Crystal	253.3 ± 9.3
313.44 K, Crystal	254.6 ± 9.7
313.69 K, Crystal	255.2 ± 10
313.94 K, Crystal	255 ± 10
314.19 K, Crystal	255.4 ± 10
314.44 K, Crystal	256.5 ± 11
314.69 K, Crystal	256.9 ± 10
314.94 K, Crystal	256.1 ± 11
315.19 K, Crystal	256 ± 10
315.44 K, Crystal	255.8 ± 9.5
315.69 K, Crystal	255.8 ± 9.9
315.94 K, Crystal	256 ± 11
316.19 K, Crystal	256.4 ± 11
316.44 K, Crystal	256.4 ± 11
316.69 K, Crystal	257.2 ± 11
316.94 K, Crystal	258 ± 11
317.19 K, Crystal	257.2 ± 11
317.44 K, Crystal	257.6 ± 11
317.69 K, Crystal	257.8 ± 11
317.94 K, Crystal	257.4 ± 11
318.19 K, Crystal	257 ± 11
318.44 K, Crystal	258.3 ± 11
318.69 K, Crystal	258.9 ± 11
318.94 K, Crystal	259.1 ± 11
319.19 K, Crystal	260.1 ± 11
319.44 K, Crystal	259.4 ± 12
319.69 K, Crystal	260.1 ± 12
319.94 K, Crystal	259.7 ± 12
320.19 K, Crystal	259.7 ± 12
320.44 K, Crystal	260.3 ± 12
320.69 K, Crystal	260.6 ± 12
320.94 K, Crystal	261.2 ± 12
321.19 K, Crystal	261.4 ± 12
321.44 K, Crystal	260.7 ± 12
321.69 K, Crystal	260.9 ± 12
321.94 K, Crystal	260.9 ± 12
322.19 K, Crystal	261.4 ± 12
322.44 K, Crystal	262.1 ± 13
322.69 K, Crystal	262.7 ± 13
322.94 K, Crystal	262.6 ± 13
323.19 K, Crystal	263.3 ± 12
323.44 K, Crystal	263.3 ± 12
323.69 K, Crystal	262.8 ± 12
323.94 K, Crystal	263 ± 12
324.19 K, Crystal	264.1 ± 13
324.44 K, Crystal	264.2 ± 13
324.69 K, Crystal	264.3 ± 12
324.94 K, Crystal	265.1 ± 13
325.19 K, Crystal	265.2 ± 12
325.44 K, Crystal	265.1 ± 12
325.69 K, Crystal	265.8 ± 13
325.94 K, Crystal	266.1 ± 13
326.19 K, Crystal	266.1 ± 13
326.44 K, Crystal	267.6 ± 13
326.69 K, Crystal	267.8 ± 14
326.94 K, Crystal	267.5 ± 14
327.19 K, Crystal	267.3 ± 13
327.44 K, Crystal	267.7 ± 13
327.69 K, Crystal	268.3 ± 14
327.94 K, Crystal	268.4 ± 14
328.19 K, Crystal	268.9 ± 14
328.44 K, Crystal	269.8 ± 14
328.69 K, Crystal	269.8 ± 14
328.94 K, Crystal	270.3 ± 14
329.19 K, Crystal	270.3 ± 14
329.44 K, Crystal	272 ± 14
329.69 K, Crystal	273.2 ± 14
329.94 K, Crystal	272.8 ± 14
330.19 K, Crystal	273.6 ± 15
330.44 K, Crystal	273.2 ± 14
330.69 K, Crystal	275.7 ± 14
330.94 K, Crystal	275.7 ± 14
331.19 K, Crystal	277.6 ± 14
331.44 K, Crystal	277.9 ± 15
331.69 K, Crystal	278.6 ± 15
331.94 K, Crystal	280.4 ± 15
332.19 K, Crystal	281.8 ± 16
332.44 K, Crystal	283.8 ± 16
332.69 K, Crystal	285.5 ± 16
332.94 K, Crystal	287.6 ± 16
333.19 K, Crystal	291.7 ± 17
333.44 K, Crystal	295.7 ± 18
340.69 K, Liquid	393.2 ± 31
340.94 K, Liquid	373.9 ± 15
341.19 K, Liquid	368.2 ± 16
341.44 K, Liquid	365.9 ± 15
341.69 K, Liquid	367 ± 15
341.94 K, Liquid	367.1 ± 16
342.19 K, Liquid	366.1 ± 15
342.44 K, Liquid	366.4 ± 16
342.69 K, Liquid	368.5 ± 16
342.94 K, Liquid	384.8 ± 17
343.19 K, Liquid	386 ± 18
343.44 K, Liquid	368.7 ± 16
343.69 K, Liquid	364.2 ± 20
343.94 K, Liquid	364.3 ± 21
344.19 K, Liquid	364.4 ± 20
344.44 K, Liquid	365 ± 20
344.69 K, Liquid	366.8 ± 18
344.94 K, Liquid	368.6 ± 18
345.19 K, Liquid	369.5 ± 18
345.44 K, Liquid	369.4 ± 17
345.69 K, Liquid	370.7 ± 16
345.94 K, Liquid	371 ± 16
346.19 K, Liquid	371 ± 16
346.44 K, Liquid	370.7 ± 16
346.69 K, Liquid	371 ± 16
346.94 K, Liquid	372.4 ± 16
347.19 K, Liquid	373.1 ± 16
347.44 K, Liquid	372.8 ± 16
347.69 K, Liquid	373.7 ± 17
347.94 K, Liquid	374 ± 17
348.19 K, Liquid	373.1 ± 17
348.44 K, Liquid	372.9 ± 17
348.69 K, Liquid	371.8 ± 17
348.94 K, Liquid	372 ± 17
349.19 K, Liquid	373 ± 17
349.44 K, Liquid	374.4 ± 17
349.69 K, Liquid	374.8 ± 18
349.94 K, Liquid	374 ± 18
350.19 K, Liquid	374.1 ± 18
350.44 K, Liquid	375.3 ± 17
350.69 K, Liquid	374.9 ± 18
350.94 K, Liquid	373.9 ± 18
351.19 K, Liquid	375 ± 17
351.44 K, Liquid	376.6 ± 18
351.68 K, Liquid	375.6 ± 18
351.93 K, Liquid	376.3 ± 18
